# Measurements published in paper PMC6033897, “Characterization and Validation of a Human 3D Cardiac Microtissue for the Assessment of Changes in Cardiac Pathology” (Scientific Reports, 2018).
# Where a name gives a salt, the structure may show the parent alone.
# Columns and labels:
# cardiac microtissues [1] = experiment: Cellular viability (ATP depletion, CellTiter-Glo) in cardiac microtissues; type: cell-based, human; conditions: cardiac microtissues, read-out: Cellular viability (ATP depletion) IC50
# Protocol: (§1) Cellular ATP concentrations were assessed using the CellTiter-Glo® Luminescent Cell Viability Assay as per the manufacturer’s instructions (Promega); for cardiac microtissues 40 µl media was removed prior to the addition of 40 µl CellTiter-Glo® reagent. […] Data from the same treatment on minimum of 3 occasions were averaged to represent the mean ATP measurement.
# cardiac microtissues [2] = experiment: ER integrity (ER-Tracker blue imaging) in cardiac microtissues; type: cell-based, human; conditions: cardiac microtissues, 72 hours, geometric mean, read-out: ER integrity IC50
# Protocol: (§2) Cardiac microtissues were stained with fluorescent probes in cell culture media, 40 µl media was removed and 40 µl of 2x multiplexed dye was added back to the well for 30 minutes at 37 °C, 5% CO2. Fluorescent probes used were ER-Tracker blue (2 µM) to measure endoplasmic reticulum (ER) integrity and TMRE (500 nM) to measure mitochondrial membrane potential (ΔΨm). All microtissues were imaged on a Cell Voyager 7000 (YokogawaInc.) and images captured using a 20x objective (Olympus UPLSAPO 0.75 NA, 0.6 mm WD), with a 2 × 2 bin. Plates are imaged live, prior to use the stage temperature was set to 37 °C and CO2 level at 5%. […] Transmitted light images were acquired using a 100 W Halogen lamp as an illumination source. Images were captured over a 60 μm range in the Z-axis with a 5 μm interval between slices. Z-stack images were output as a maximal projection of multiple z-planes.
# (§3) Maximum projection images were imported and analysed in the Columbus Platform (v2.7, Perkin Elmer Inc.).
# cardiac microtissues [3] = experiment: Mitochondrial membrane potential (ΔΨm, TMRE imaging) in cardiac microtissues; type: cell-based, human; conditions: cardiac microtissues, 72 hours, geometric mean, read-out: Mitochondrial membrane potential (ΔΨm) IC50
# Protocol: as §2, §3
# [4] = total Cmax, therapeutically relevant maximum total plasma concentration; source not given; cited from earlier work
# H9c2 cells = tested on: H9c2 cells; parameters: method as in PMID 18664550; conditions: read-out: reported IC50 value in H9c2 cells; cited from earlier work
# hESC-CMs = conditions: read-out: reported IC50 value in hESC-CMs; cited from earlier work
# hCMEC [5] = experiment: ER integrity in 2D monoculture; type: cell-based; conditions: Homo sapiens
# Protocol: (§4) For 2D monoculture, hiPS-CM, hCMEC and hCF were cultured as described above and seeded in CellCarrier-384 Ultra microplates (Perkin Elmer, 6057300) at 5000, 2500 and 1750 cells/well respectively.
# (§5) Monoculture cells were stained with fluorescent probes diluted in cell culture media, 25 µl media was removed and 25 µl of 2x multiplexed dye was added back to the well for 15 minutes at 37 °C, 5% CO2.
# hiPS-CM [6] = experiment: ER integrity in 2D monoculture; type: cell-based; conditions: Homo sapiens
# Protocol: as §4, §5
# hCMEC [7] = experiment: Mitochondrial membrane potential (ΔΨm) in 2D monoculture; type: cell-based; conditions: Homo sapiens
# Protocol: as §4, §5
# hiPS-CM [8] = experiment: as above; type: cell-based; conditions: Homo sapiens
# Protocol: as §4, §5
# hCMEC [9] = experiment: Cellular viability (ATP depletion) in 2D monoculture; type: cell-based; conditions: Homo sapiens
# Protocol: as §4, §1
# hiPS-CM [10] = experiment: as above; type: cell-based; conditions: Homo sapiens
# Protocol: as §4, §1
# cardiac microtissues [11] = experiment: Histopathology (H&E, IHC, IF) of treated cardiac microtissues; type: cell-based, human; conditions: 24 hours; sunitinib 100 µM; doxorubicin 0.1 and 30 µM (Fig. 2)
# Protocol: Microtissues were harvested from 384 well-plates and washed twice in 1x PBS (Sigma P7059) subsequent to fixation in 3.7% paraformaldehyde (PFA) (Sigma F1635) at 4 °C for one hour. The 3.7% PFA was then removed and replaced with two washes of 1x PBS. The PBS was removed and replaced with liquid HistoGel (Thermo Fisher HG-4000-012) and left on ice for 30 minutes to solidify. The HistoGel pellet was placed into a histological cassette and processed using an enclosed tissue processor overnight. The HistoGel was then embedded using paraffin wax.
# The formalin fixed paraffin embedded (FFPE) blocks were then sectioned at each time point at three 50 µm step levels with 8 × serial sections per level at 3 µm. H&E staining was performed on microtissue sections using Mayer’s Haematoxylin using a standard automated protocol. Standard automated immunohistochemistry (IHC) and immunofluorescence (IF) protocols were used for primary antibody detection at different dilutions (Supplementary Table 3) on microtissue sections. Diaminobenzadine (DAB) (Roche Diagnostics 760–159) was used to visualise positive staining in single-plex staining and Alkaline Phosphatase Fast Red (Roche Diagnostics 760–160) with DAB were used in dual staining, with a haematoxylin counterstain. […] A minimum of 15 microtissues per time point/treatment were evaluated. […]
# hCF [12] = experiment: ER integrity in 2D monoculture; conditions: Homo sapiens, read-out: ER integrity IC50
# hCF [13] = experiment: Cellular viability (ATP depletion) in 2D monoculture; conditions: Homo sapiens, read-out: Cellular viability (ATP depletion) IC50
# hCF [14] = experiment: Mitochondrial membrane potential (ΔΨm) in 2D monoculture; conditions: Homo sapiens, read-out: Mitochondrial membrane potential (ΔΨm) IC50
# cardiac microtissues [15] = experiment: Therapeutic index (IC50 in cardiac microtissues divided by total Cmax); type: cell-based, human
# Protocol: The outcome of a drug being either toxic or non-toxic is determined by exposure. Consequently, it is important to consider therapeutically relevant maximum total plasma concentrations (Cmax) when investigating drug-induced toxicity. We questioned whether this approach can detect changes in drug-induced cardiac structure at relevant therapeutic concentrations. […] The cardiac structural changes of compounds could be divided into four categories: (1) at least one parameter modulated at a concentration of within 10-times the Cmax, (2) at least one parameter modulated at a concentration of within 100-times the Cmax, (3) changes in cardiac structure occurred at concentrations of above 100-times the Cmax concentration, (4) the changes in cardiac structure was not detected in this approach (i.e. no IC50 value could be calculated).
# [16] = Homo sapiens, 72 hours, geometric mean
Compound,IC50 (cardiac microtissues [1]; [16]) [µM],IC50 (cardiac microtissues [2]; Homo sapiens) [µM],IC50 (cardiac microtissues [3]; Homo sapiens) [µM],Cmax [4] [nM],further results
CC(C)NCC(O)c1ccc(O)c(O)c1 (stereo not drawn) [Isoproterenol HCl],> 100,76.9,59.2,10,–
CNC(=O)c1cc(Oc2ccc(NC(=O)Nc3ccc(Cl)c(C(F)(F)F)c3)cc2)ccn1 [Sorafenib Tosylate],8.72,6.42,8.22,–,IC50 (H9c2 cells): 44.9 µM; IC50 (hESC-CMs): 15.2 µM
O=C(C1CCCCC1)N1CC(=O)N2CCc3ccccc3C2C1 (stereo not drawn) [Praziquantel],10.1,0.82,> 100,640,–
CC(=O)[C@]1(O)Cc2c(O)c3c(c(O)c2[C@@H](O[C@H]2C[C@H](N)[C@H](O)[C@H](C)O2)C1)C(=O)c1ccccc1C3=O [Idarubicin HCl],0.03,1.67,0.97,120,–
O=C1CC2(CCCC2)CC(=O)N1CCCCN1CCN(c2ncccn2)CC1 [Buspirone HCl],56.4,> 100,> 100,30,–
O=C1C[C@@H](c2ccc(O)cc2)Oc2cc(O)cc(O)c21 [Narigenin],–,–,–,15400,"IC50 (cardiac microtissues [1]; 72 hours, geometric mean): 62.5 µM; IC50 (cardiac microtissues [2]): > 100 µM; IC50 (cardiac microtissues [3]): > 100 µM"
Cc1ccc(C)c(OCCCC(C)(C)C(=O)O)c1 [Gemfibrozil],> 100,> 100,> 100,99900,–
CCN(CC)CCNC(=O)c1c(C)[nH]c(/C=C2\C(=O)Nc3ccc(F)cc32)c1C [Sunitinib Malate],8.23,0.39,2.58,250,"IC50 (cardiac microtissues [1]; Homo sapiens, 24 hours): 46.2 µM; IC50 (hCMEC [5]; 24 hours): 2.96 µM; IC50 (hCMEC [5]; 72 hours): 12.7 µM; IC50 (hiPS-CM [6]; 24 hours): 4.48 µM; IC50 (hiPS-CM [6]; 72 hours): 2.63 µM; IC50 (hCMEC [7]; 24 hours): 9.57 µM; IC50 (hCMEC [7]; 72 hours): 2.97 µM; IC50 (hiPS-CM [8]; 24 hours): 16.1 µM; IC50 (hiPS-CM [8]; 72 hours): 16.2 µM; IC50 (hCMEC [9]; 24 hours): 4.9 µM; IC50 (hCMEC [9]; 72 hours): 0.8 µM; IC50 (hiPS-CM [10]; 24 hours): 24.7 µM; IC50 (hiPS-CM [10]; 72 hours): 27.1 µM; Histopathological / morphological changes (cardiac microtissues [11]): clear reduction in overall cellularity; IC50 (hCF [12]; 24 h): 6.59 µM; IC50 (hCF [12]; 72 h): 0.37 µM; IC50 (hCF [13]; 24 h): 16.5 µM; IC50 (hCF [13]; 72 h): 4 µM; IC50 (hCF [14]; 24 h): 17.8 µM; IC50 (hCF [14]; 72 h): 11.6 µM"
CC(C)C[C@H](NC(=O)[C@H](Cc1ccccc1)NC(=O)c1cnccn1)B(O)O [Bortezomib],0.35,91.8,1.62,290,–
CN1CCN(C2=Nc3cc(Cl)ccc3Nc3ccccc32)CC1 [Clozapine],–,–,–,470,–
COc1cc(N)c(Cl)cc1C(=O)NC1CCN(CCCOc2ccc(F)cc2)CC1OC (stereo not drawn) [Cisapride Hydrate],–,–,–,170,"IC50 (cardiac microtissues [1]; 72 hours, geometric mean): 76.4 µM; IC50 (cardiac microtissues [2]): 32.8 µM; IC50 (cardiac microtissues [3]): > 100 µM"
Cc1nc(Nc2ncc(C(=O)Nc3c(C)cccc3Cl)s2)cc(N2CCN(CCO)CC2)n1 [Dasatinib],27.1,> 100,> 100,–,"Therapeutic index (TI): lowest IC50 of ΔΨm, ER integrity or ATP depletion / total Cmax (cardiac microtissues [15]): ≤ 100 times Cmax"
